Experimental data published in patent publication US4740518A, “4H-benzo(4,5)cyclohepta(1,2-B)thiophene derivatives” (Sandoz Ltd., priority 1983, dated 1988).

What was measured:
[1] = Yeast-induced fever test in the rat (Test B); type: in vivo, male rats (Sprague-Dawley); conditions: for ED50: Rattus norvegicus, read-out: Yeast fever ED50
Procedure: For this test male rats (Sprague-Dawley) of 130-180 g are fasted overnight. Body temperature is measured the following morning using a thermistor rectal probe connected to a telethermometer. 1 ml/100 g body weight of a 15% suspension of dried baker's yeast in saline is then injected s.c.. Body temperature is measured 2 hours later and this value taken as the initial temperature. 6 hours after yeast injection the test animals receive an oral dosage of the test substance suspended in 0.5% tragacanth or tragacanth alone (control). Body temperature is again measured after a further 2 hours.
Increase in temperature for each rat is calculated and expressed as a % of average increase determined in the control group (ca. 2.3° C. above normal). The ED50, estimated by regression analysis, is taken as the dosage at which increase in rectal temperature is 50% of that in the control group. Compounds of the invention, e.g. compounds of formula I, are active in this test at dosages of from 15 to 60 mg/kg.

[2] = Arthritis pain test in the rat (Test C); type: in vivo, male rats (OFA); conditions: for ED50: Rattus norvegicus, read-out: Arthritis pain ED50
Procedure: For this test male rats (OFA) of 110-120 g are treated with 0.1 ml of a Mycobacterium butyricum suspension in paraffin oil (0.6 mg Mycobact./0.1 ml oil) injected i.c. into the tail root. Marked arthritis in the hind-paws develops ca. 12 days after treatment. 30 mins. before administration of test-substance, control measurement is performed by flexing the foot joint of the right or left hind-paw using a Statham transducer until vocalisation occurs. […] Test substance is administered orally and the flexion procedure repeated 1,3 and 5 hours subsequently. The pressure at which vocalisation occurs is noted, the value recorded for each rat at each interval being the average value of three successive measurements. Animals in which the vocalisation threshold is doubled with respect to the control measurement are considered to be protected. The ED50 estimated for each post-treatment time according to the Probit method is taken as the dosage at which 50% of animals are protected. Compounds of the invention, e.g. compounds of formula I, are active in this test at dosages of from 3.2 to 100 mg/kg.

[3] = Adjuvant arthritis test in the rat (Test A); type: in vivo; conditions: for ED50: Rattus norvegicus
Procedure: For this test adjuvant arthritis is induced according to the method of Pearson and Wood, "Arthr. Rheum."2, 440 (1959). Compounds of the invention, e.g. compounds of formula I, are active in this test against developing and established arthritis at dosages of from 5 to 30 mg/kg/day.

Row | SMILES | ED50 ([1]; Test B, oral, temperature 2 h after dosing, compound A as cis (Z) isomer) | indicated daily dosage relative to acetylsalicylic acid, anti-pyretic therapy ([1]; cis-isomer) | ED50 ([2]; Test C, oral, 50% of animals protected, compound A as cis (Z) isomer) | indicated daily dosage relative to acetylsalicylic acid, analgesic therapy ([2]; cis-isomer) | ED50 ([3]; Test A, developing arthritis, compound A as cis/trans (Z,E) isomer mixture, read-out: Developing arthritis ED50) | ED50 ([3]; Test A, developing arthritis, using cis (Z) isomer, read-out: Developing arthritis ED50) | ED50 ([3]; Test A, established arthritis, compound A as cis/trans (Z,E) isomer mixture, read-out: Established arthritis ED50) | ED50 ([3]; Test A, established arthritis, using cis (Z) isomer, read-out: Established arthritis ED50) | indicated daily dosage relative to acetylsalicylic acid, anti-inflammatory therapy ([3]; pure cis-isomer) | ED50 ([1]; po, 2 h) | ED50 ([2]; po) | ED50 ([3]; read-out: Developing arthritis ED50) | ED50 ([3]; read-out: Established arthritis ED50)
1 | COC1=Cc2ccccc2C(=CC(=O)O)c2ccsc21 [A, [10-methoxy-4H-benzo[4,5]cyclohepta[1,2-b]thiophen-4-ylidene]-acetic acid] | 22 mg/kg | 1/7 | 7 mg/kg | 1/12 | 15 mg/kg | 8 mg/kg | 15 mg/kg | 16 mg/kg | 1/15 | – | – | – | –
2 | CC(=O)Oc1ccccc1C(=O)O [B, acetylsalicyclic acid, reference compound] | – | – | – | – | – | – | – | – | – | 161 mg/kg | 90 mg/kg | 140 mg/kg | 240 mg/kg
